Peptide text beside a SMILES is read from it.
Tested on: mTOR
Assay: mTOR activity in human peripheral blood monocyte derived macrophages
Format: cell-based
Conditions: 100 μM GPN, 1 h
Procedure: (A) Dose-response analysis of mTOR activity in HEK293T cells treated with glycyl-L-phenylalanine 2-naphththylamide (GPN) in full medium for 1 h. mTOR activity was monitored by inununoblotting analysis of S6K1 (T389) and ULK1 (S757) phosphorylation (phosphorylated S6K (T389) and ULK1 (S757) relative to total S6K and ULK1, respectively). (B) Analysis of mTOR activity (as in A) after GPN washout. HEK293T cells were treated with 100 μM GPN for 1 h followed by 1 h washout in full medium. Data, means±SEM (n=3), **p<0.01, ANOVA. (C) Analysis of mTOR activity (as in A) in HEK293T cells treated with increasing doses of silica in full medium for 1 h. (D) HEK293T cells were treated with lysosomal damaging agents (LLOMe, Leu-Leu-OMe) for 1 h in full medium and status of acidified organelles assessed by quantifying LysoTracker Red DND-99 puncta using automated high-content imaging and analysis (HC). […] Data, means±SEM, n≥3 independent experiments (500 primary objects counted per well; ≥5 wells/sample per each experiment), **p<0.01, ANOVA. […] Human peripheral blood monocyte derived macrophages were treated with 100 μM GPN in full medium or starved in EBSS for 1 h, and mTOR activity measured as in A. None-treated cells were as control (Ctrl). […] Data, means±SEM, n≥3 independent experiments (500 primary objects counted per well; ≥5 wells/sample per each experiment) **p<0.01, ANOVA. […]

Q: Which “mTOR activity in primary cells” value does the source give for NCC(=O)N[C@@H](Cc1ccccc1)C(=O)Nc1ccc2ccccc2c1 [GPN, glycyl-L-phenylalanine 2-naphththylamide] (HELM PEPTIDE1{G.F.[c1ccc2cc(N[*:1])ccc2c1]}$$$$V2.0) here?
A: confirmed

Reference: US20210069295A1, “GALECTINS CONTROL MTOR IN RESPONSE TO ENDOMEMBRANE DAMAGE AND PROVIDE A MECHANISM AND TARGET FOR THE TREATMENT OF AUTOPHAGY-RELATED DISEASES” (STC. UNM, priority 2017, published 2021)
